Consider 7 compounds from article PMC7594054, “Design, Synthesis and In Vitro Experimental Validation of Novel TRPV4 Antagonists Inspired by Labdane Diterpenes” (Marine Drugs, 2020).

In one data set the target is T1, rTRPV4 (Rattus norvegicus, UniProt Q9ERZ8).
T1 construct: expressed in transfected cells; host or cells: HEK-293
The experiment in a line: TRPV4 calcium influx assay (Fluo-4) in HEK-293 cells overexpressing rat recombinant TRPV4. Conditions: for IC50: against the effect of GSK1016790A (10 nM) after a 5-min pre-incubation, read-out: IC50 inh. TRPV4; for Efficacy %: as percent of the effect of ionomycin (4 µM), HEK-293 cells overexpressing rTRPV4, means ± SEM, n >= 3. Type of data set: cell-based. From the text: The interaction properties of all homodrimane-derived compounds 1–16, 18–19, and 22–25 with either TRPV type-4 or type-1 were studied in human embryonic kidney (HEK)-293 cells overexpressing either the rat recombinant type-4 (rTRPV4), which shares with the human orthologue ~95% of sequence identity, and the human recombinant type-1 (hTRPV1) channel, evaluating the changes in intracellular calcium levels. […] Cell fluorescence before and after the addition of various concentrations of test compounds was measured normalizing the effects against the response to ionomycin (4 μM). […] Dose-response curve fitting (sigmoidal dose-response variable slope) and parameter estimation were performed with Graph-Pad Prism8® (GraphPad Software Inc., San Diego, CA, USA). All determinations were performed at least in triplicate.

For the next data set, the target named is T2, hTRPV1 (Homo sapiens, UniProt Q8NER1).
T2 construct: expressed in transfected cells; host or cells: HEK-293
Briefly: TRPV1 calcium influx assay (Fluo-4) in HEK-293 cells overexpressing human recombinant TRPV1. Type of data set: cell-based. The conditions noted are these: for IC50: read-out: IC50 inh TRPV1; for Efficacy %: as percent of the effect of ionomycin (4 µM), HEK-293 cells overexpressing hTRPV1, means ± SEM, N >= 3.

The test system of another data set is HeLa cells. Briefly: MTT cytotoxicity assay, HeLa cells. Type of data set: cell-based, human. The conditions noted are these: HeLa cells, 1, 5 and 25 μM, 24 h. As to the method: (§1) HeLa and A549 cells were seeded at 2 × 10^3 cells/cm^2 density in 24-well plastic plates. One day after plating, compounds 6 and 18 were added to the culture medium for 24 h. Cell viability was evaluated with the 3-(4,5-dimethylthiazol-2-yl)-2,5-diphenyltetrazolium bromide (MTT; 0.5 mg/mL; Sigma-Aldrich, Milan, Italy) reduction assay, and formazan salt formation upon MTT reduction by the mitochondria of living cells was detected spectrophotometrically at 595 nm according to published procedures.
(§2) Figure 2 Cell viability measured in HeLa and A549 cells treated for 24 h with increasing concentration of compound 6 (panel A, C) and 18 (panel B, D). Bar graphs show cell viability measured using the 3-(4,5-dimethylthiazol-2-yl)-2,5-diphenyltetrazolium bromide (MTT) assay. Data are expressed as optical density (OD) at 595 nm, normalized to control (vehicle). The bar is the standard error of the mean (SEM) on 3 independent determinations. Statistically significant differences were accepted when the p-value was at least ≤0.05.

The test system of a further data set is A549 cells. Briefly: MTT cytotoxicity assay, A549 cells. Conditions: A549 cells, 1, 5 and 25 μM, 24 h. It is filed as cell-based, human. The procedure:
as §1, §2
(Tetrazolium assays rely on reduction of a dye to a coloured formazan, in cell work by metabolically active cells.)

The subject of another data set is TRPV4. The conditions noted are these: cited from earlier work.
Another data set concerns TRPV1. Details: method as in PMID 30507122. Conditions: cited from earlier work.

The structures appear in SMILES notation. Some results are limits rather than exact numbers.

T1 sequence (Q9ERZ8 whole entry): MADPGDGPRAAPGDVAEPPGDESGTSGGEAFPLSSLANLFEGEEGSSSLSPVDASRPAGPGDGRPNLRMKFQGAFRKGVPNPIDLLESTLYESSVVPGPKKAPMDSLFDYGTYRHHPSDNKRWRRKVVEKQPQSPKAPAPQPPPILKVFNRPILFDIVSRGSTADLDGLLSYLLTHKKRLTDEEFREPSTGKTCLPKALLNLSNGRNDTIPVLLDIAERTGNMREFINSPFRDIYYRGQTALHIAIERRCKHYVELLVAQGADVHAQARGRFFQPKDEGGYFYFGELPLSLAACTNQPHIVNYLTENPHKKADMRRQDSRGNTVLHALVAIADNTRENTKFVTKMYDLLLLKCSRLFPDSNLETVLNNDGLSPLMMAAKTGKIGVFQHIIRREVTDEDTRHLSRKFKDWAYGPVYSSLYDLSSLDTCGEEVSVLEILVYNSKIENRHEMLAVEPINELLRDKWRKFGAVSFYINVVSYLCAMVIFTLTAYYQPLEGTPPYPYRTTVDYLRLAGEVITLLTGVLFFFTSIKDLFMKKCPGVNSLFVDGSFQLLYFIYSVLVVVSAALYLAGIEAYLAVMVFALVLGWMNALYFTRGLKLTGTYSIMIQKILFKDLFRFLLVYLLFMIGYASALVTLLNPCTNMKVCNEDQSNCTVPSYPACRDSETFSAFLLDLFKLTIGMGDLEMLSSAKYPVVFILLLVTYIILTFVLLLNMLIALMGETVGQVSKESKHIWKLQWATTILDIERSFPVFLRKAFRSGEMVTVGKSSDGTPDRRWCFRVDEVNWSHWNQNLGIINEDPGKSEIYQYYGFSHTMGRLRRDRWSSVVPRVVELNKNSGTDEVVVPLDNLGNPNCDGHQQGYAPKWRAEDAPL
T2 sequence (Q8NER1 whole entry): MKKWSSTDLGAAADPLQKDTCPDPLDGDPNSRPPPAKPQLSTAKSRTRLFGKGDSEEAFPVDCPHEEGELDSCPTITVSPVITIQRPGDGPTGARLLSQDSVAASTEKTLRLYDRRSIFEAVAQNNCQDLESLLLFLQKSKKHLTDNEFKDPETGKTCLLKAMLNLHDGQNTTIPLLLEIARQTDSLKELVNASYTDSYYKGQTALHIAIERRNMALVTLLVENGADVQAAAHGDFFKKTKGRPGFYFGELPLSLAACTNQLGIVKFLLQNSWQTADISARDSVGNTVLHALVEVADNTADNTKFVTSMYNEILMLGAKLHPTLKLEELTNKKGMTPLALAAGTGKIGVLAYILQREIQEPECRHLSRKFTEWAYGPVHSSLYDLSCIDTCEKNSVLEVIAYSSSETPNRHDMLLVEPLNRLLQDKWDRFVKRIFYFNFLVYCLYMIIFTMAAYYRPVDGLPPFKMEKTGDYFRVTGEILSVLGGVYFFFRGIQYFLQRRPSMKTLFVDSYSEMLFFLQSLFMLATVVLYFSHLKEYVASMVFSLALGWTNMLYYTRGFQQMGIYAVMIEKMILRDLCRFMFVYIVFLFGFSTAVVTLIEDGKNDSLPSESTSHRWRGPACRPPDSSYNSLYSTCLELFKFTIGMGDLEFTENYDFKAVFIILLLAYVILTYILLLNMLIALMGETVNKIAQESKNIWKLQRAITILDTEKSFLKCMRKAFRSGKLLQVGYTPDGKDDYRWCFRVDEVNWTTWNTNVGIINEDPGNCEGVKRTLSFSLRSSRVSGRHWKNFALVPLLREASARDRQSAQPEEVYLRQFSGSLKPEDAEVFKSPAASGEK

For orientation: IC50 means the concentration that inhibits the measured activity by half. By melting point is commonly meant the temperature of the solid-liquid transition. Take `CC1(C)CCC[C@]2(C)[C@@H](CCOC(=O)/C=C/c3ccc4c(c3)OCO4)[C@](C)(O)CC[C@@H]12` [Compound 23, 2-((1R,2R,4aS,8aS)-2-hydroxy-2,5,5,8a-tetramethyldecahydronaphthalen-1-yl)ethyl (E)-3-(benzo[d][1,3]dioxol-5-yl)acrylate]: the melting point is 115 to 116 °C. At rTRPV4, the IC50 is above 100 µM and the Efficacy % was below 10%. In addition, at hTRPV1, the IC50 is above 100 µM.

`CC1(C)CCC[C@]2(C)[C@@H](CCOC(=O)c3ccc4c(c3)OCO4)[C@](C)(O)CC[C@@H]12` [Compound 22, 2-((1R,2R,4aS,8aS)-2-Hydroxy-2,5,5,8a-tetramethyldecahydronaphthalen-1-yl)ethyl Benzo[d][1,3]dioxole-5-carboxylate]: the melting point was in the range of 155 to 156 °C. In addition, the Efficacy % on rTRPV4 is below 10%. For the same compound, the IC50 on hTRPV1 was above 100 µM.

As to `CC1(C)CCC[C@]2(C)[C@@H](CC(=O)NCc3ccc(Cl)c(Cl)c3)[C@](C)(O)CC[C@@H]12` [Compound 6, N-(3,4-dichlorobenzyl)-2-((1R,2R,4aS,8aS)-2-hydroxy-2,5,5,8a-tetramethyldecahydronaphthalen-1-yl)acetamide], at rTRPV4, the “activity on rTRPV4 in words” value is “potent and selective TRPV4 antagonists”. Further, the IC50 at rTRPV4 was 5.3 ± 0.3 µM; on hTRPV1, above 100 µM. In addition, the Efficacy % at rTRPV4 is recorded as below 10%; on hTRPV1 it was 16.9 ± 0.3%. Moreover, the “cytotoxic effect (cell viability, MTT)” value in the data set on HeLa cells and in the data set with A549 cells was “neither compound caused statistically-significant cytotoxic effects at any tested concentration” in each case.

In general, EC50 refers to the midpoint of the concentration-response curve. Consider `C=C1CC[C@@H]2[C@](C)(CO)[C@H](O)CC[C@@]2(C)[C@@H]1/C=C/C1=CC(C(C[C@@H]2C(=C)CC[C@@H]3[C@](C)(CO)[C@H](O)CC[C@]32C)C2=CCOC2=O)OC1=O` (some centres unmarked) [bisandrographolide A], for which the EC50 in the data set with TRPV4 (read-out: EC50 (TRPV4 agonist)) was 0.79 to 0.95 µM.

`CC1(C)CCC[C@]2(C)[C@@H](CC(=O)OCc3ccccc3)[C@](C)(O)CC[C@@H]12` [Compound 18, Benzyl 2-((1R,2R,4aS,8aS)-2-hydroxy-2,5,5,8a-tetramethyldecahydronaphthalen-1-yl)acetate]: on rTRPV4, the “activity on rTRPV4 in words” value is “potent and selective TRPV4 antagonists”; the IC50 amounted to 5.41 ± 0.07 µM; the Efficacy % is given as below 10%. Further, the “cytotoxic effect (cell viability, MTT)” value with HeLa cells is on record as “neither compound caused statistically-significant cytotoxic effects at any tested concentration”. For the same compound, in the data set on A549 cells, the “cytotoxic effect (cell viability, MTT)” value is given as “neither compound caused statistically-significant cytotoxic effects at any tested concentration”.

As for `C/C=C(\C)[C@H]1C(C)=C[C@H]2C[C@@H](C)C[C@@H](C(=O)O)[C@@H]2[C@@]1(C)C(=O)c1cccnc1` [onydecalin A], in the data set on TRPV4 (read-out: IC50 (TRPV4 antagonist)), the half-inhibitory concentration (IC50) is 45.9 µM. The “activity towards TRPV1 in words” value in the data set with TRPV1 is given as “partial activity”.

`CC1(C)CCC[C@]2(C)[C@@H](CC(=O)NCc3ccc(F)cc3)[C@](C)(O)CC[C@@H]12` [Compound 7, N-(4-fluorobenzyl)-2-((1R,2R,4aS,8aS)-2-hydroxy-2,5,5,8a-tetramethyldecahydronaphthalen-1-yl)acetamide]: the melting point was in the range of 135 to 136 °C. Further, the EC50 at rTRPV4 (activation, half-maximal increase in [Ca2+]i, NA = not active (efficacy lower than 10%), read-out: Potency EC50) is 13.4 ± 2.6 µM. Also, at rTRPV4, the IC50 worked out at 16.9 ± 0.8 µM and the Efficacy % was found to be 15.8 ± 0.8%. Also, the EC50 at hTRPV1 (activation, NA = not active (efficacy lower than 10%), read-out: Potency EC50) was determined as 9.9 ± 0.1 µM. Further, at hTRPV1, the Efficacy % was determined as 24.5± 0.2% and the IC50 was above 50 µM.
